Test results taken from patent US20190374533A1, “COMPOUNDS AND METHODS FOR INHIBITING NHE-MEDIATED ANTIPORT IN THE TREATMENT OF DISORDERS ASSOCIATED WITH FLUID RETENTION OR SALT OVERLOAD AND GASTROINTESTINAL TRACT DISORDERS” (Ardelyx, Inc., priority 2008, published 2019).
Counter-ions that a name gives are not always drawn.

How the values were obtained:
human NHE3 [1] = target: T1, human NHE3 (Homo sapiens, UniProt P48764); test: Cell-based assay of NHE-3 activity (pre-incubation inhibition), human; details: human Preincubation assay; for IC50: PS120 fibroblasts expressing human NHE3 and NHERF2, 0-30 μM test compound
T1 construct: host or cells: PS120 fibroblasts
T1 sequence (P48764 26-834): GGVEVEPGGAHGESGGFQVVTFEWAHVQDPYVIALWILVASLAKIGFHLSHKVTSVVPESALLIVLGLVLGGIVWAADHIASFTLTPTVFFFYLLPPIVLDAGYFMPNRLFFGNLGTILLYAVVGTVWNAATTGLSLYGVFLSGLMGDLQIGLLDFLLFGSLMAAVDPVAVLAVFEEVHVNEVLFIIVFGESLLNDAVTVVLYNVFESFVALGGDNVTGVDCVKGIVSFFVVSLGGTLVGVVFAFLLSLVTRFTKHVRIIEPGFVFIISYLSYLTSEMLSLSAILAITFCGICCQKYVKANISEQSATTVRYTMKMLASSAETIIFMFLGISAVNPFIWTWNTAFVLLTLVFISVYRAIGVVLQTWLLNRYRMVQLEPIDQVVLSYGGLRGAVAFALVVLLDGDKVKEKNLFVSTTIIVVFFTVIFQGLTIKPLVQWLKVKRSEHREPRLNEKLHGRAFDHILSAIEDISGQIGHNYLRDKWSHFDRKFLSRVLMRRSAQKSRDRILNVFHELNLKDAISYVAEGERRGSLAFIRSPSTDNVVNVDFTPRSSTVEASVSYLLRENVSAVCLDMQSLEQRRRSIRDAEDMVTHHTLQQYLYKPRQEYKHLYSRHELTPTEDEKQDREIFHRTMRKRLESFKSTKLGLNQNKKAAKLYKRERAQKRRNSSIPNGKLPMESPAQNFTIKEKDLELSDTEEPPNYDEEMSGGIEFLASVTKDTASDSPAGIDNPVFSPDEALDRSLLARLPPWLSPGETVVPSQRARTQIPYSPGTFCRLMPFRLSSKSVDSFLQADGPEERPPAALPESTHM
T1 sequence (Q99653 2-195 partner limits assumed): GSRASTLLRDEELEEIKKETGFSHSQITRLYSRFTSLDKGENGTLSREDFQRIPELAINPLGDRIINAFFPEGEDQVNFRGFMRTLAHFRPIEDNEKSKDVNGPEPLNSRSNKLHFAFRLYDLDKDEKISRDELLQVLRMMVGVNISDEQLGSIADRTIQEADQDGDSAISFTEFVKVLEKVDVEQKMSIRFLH
Protocol: Rat and human NHE-3-mediated Na^+-dependent H^+ antiport was measured using a modification of the pH sensitive dye method originally reported by Paradiso (Proc. Natl. Acad. Sci. USA. (1984) 81(23): 7436-7440). PS120 fibroblasts stably expressing human NHE3 and NHERF2 were obtained from Mark Donowitz (Baltimore, Md.). Opossum kidney (OK) cells were obtained from the ATCC and propagated per their instructions. The rat NHE-3 gene (GenBank M85300) was introduced into OK cells via electroporation, and cells were seeded into 96 well plates and grown overnight. Medium was aspirated from the wells then incubated for 30 min at 37° C. with NH4Cl-HEPES buffer (20 mM NH4Cl, 80 mM NaCl, 50 mM HEPES, 5 mM KCl, 2 mM CaCl2, 1 mM MgCl2, pH 7.4) containing 5 μM BCECF-AM. Cells were washed once with Ammonium free, Na^+-free HEPES (100 mM choline, 50 mM HEPES, 10 mM glucose, 5 mM KCl, 2 mM CaCl2, 1 mM MgCl2, pH 7.4) and incubated in the same buffer for 10 minutes at room temperature to lower intracellular pH with 0-30 μM test compound. […] Changes in intracellular pH were monitored using a FLIPR Tetra® (Molecular Devices, Sunnyvale, Calif.) by excitation at λex 439 to 505 nm, and measuring BCECF fluorescence at λem 538 nm. The initial rate of the fluorescence ratio change was used as a measure of NHE-mediated Na^+/H^+ activity, and reported as the change in fluorescence ratio per minute.

human NHE3 [2] = target: T1, human NHE3; test: Cell-based assay of NHE-3 activity (persistent inhibition), human; details: human Persistence assay; for IC50: 60 min incubation, washout, recovery initiated 10 min after washout
Protocol: The ability of compounds to inhibit human and rat NHE-3-mediated Na^+-dependent H^+ antiport after application and washout was measured using a modification of the pH sensitive dye method described above. PS120 fibroblasts stably expressing human NHE3 and NHERF2 were obtained from Mark Donowitz (Baltimore, Md.). Opossum kidney (OK) cells were obtained from the ATCC and propagated per their instructions. The rat NHE-3 gene was introduced into OK cells via electroporation, and cells were seeded into 96 well plates and grown overnight. Medium was aspirated from the wells, cells were washed once with NaCl-HEPES buffer (100 mM NaCl, 50 mM HEPES, 10 mM glucose, 5 mM KCl, 2 mM CaCl2, 1 mM MgCl2, pH 7.4), then overlayed with NaCl-HEPES buffer containing 0-30 μM test compound. After a 60 min incubation at room temperature, the test drug containing buffer was aspirated from the cells. Following aspiration, cells were washed once with NaCl-HEPES buffer without drug, then incubated for 30 min at 37° C. with NH4Cl-HEPES buffer (20 mM NH4Cl, 80 mM NaCl, 50 mM HEPES, 5 mM KCl, 2 mM CaCl2, 1 mM MgCl2, pH 7.4) containing 5 μM BCECF-AM. Cells were washed once with Ammonium free, Na^+-free HEPES (100 mM choline, 50 mM HEPES, 10 mM glucose, 5 mM KCl, 2 mM CaCl2. 1 mM MgCl2. pH 7.4) and incubated in the same buffer for 10 minutes at room temperature to lower intracellular pH. NHE-3-mediated recovery of neutral intracellular pH was initiated (10 min after compound washout) by addition of Na-HEPES buffer. […] Changes in intracellular pH were monitored using a FLIPR Tetra® (Molecular Devices, Sunnyvale, Calif.) by excitation at λex 439 to 505 nm, and measuring BCECF fluorescence at λem 538 nm. The initial rate of the fluorescence ratio change was used as a measure of NHE-mediated Na^+/H^+ activity, and reported as the change in fluorescence ratio per minute.

fecal water content = test: Pharmacodynamic model: effect of test compounds on fecal water content; assay type: in vivo, rat; details: female Sprague Dawley rats, 3 mg/kg oral, feces collected 16 hrs; for % Fecal water: mean of 6

## CN1Cc2c(Cl)cc(Cl)cc2[C@H](c2cccc(S(=O)(=O)NCCOCCOCCNC(=O)NCCCCNC(=O)NCCOCCOCCNS(=O)(=O)c3cccc([C@@H]4CN(C)Cc5c(Cl)cc(Cl)cc54)c3)c2)C1 (single isomer, unassigned) [Example 202, (S or R)—N,N′-(10,17-dioxo-3,6,21,24-tetraoxa-9,11,16,18-tetraazahexacosane-1,26-diyl)bis(3-((S)-6,8-dichloro-2-methyl-1,2,3,4-tetrahydroisoquinolin-4-yl)benzenesulfonamide) bis-hydrochloride salt]
Human NHE3 [1]
  % inhibition: C (>70%)
  IC50: < 100 nM
Human NHE3 [2]
  % inhibition: C (>70%)
  IC50: < 100 nM
Fecal water content
  % Fecal water (% of control): 134% of control
  % Fecal water: 63%

## CN1Cc2c(Cl)cc(Cl)cc2[C@H](c2cccc(S(=O)(=O)NCCOCCOCCNC(=O)Nc3ccc(NC(=O)NCCOCCOCCNS(=O)(=O)c4cccc([C@@H]5CN(C)Cc6c(Cl)cc(Cl)cc65)c4)cc3)c2)C1 (single isomer, unassigned) [Example 203, (S or R)—N,N′-(2,2′-(2,2′-(2,2′-(1,4-phenylenebis(azanediyl))bis(oxomethylene)bis(azanediyl)bis(ethane-2,1-diyl))bis(oxy)bis(ethane-2,1-diyl))bis(oxy)bis(ethane-2,1-diyl))bis(3-((S or R)-6,8-dichloro-2-methyl-1,2,3,4-tetrahydroisoquinolin-4-yl)benzenesulfonamide) bis-hydrochloride salt]
Human NHE3 [1]
  % inhibition: C (>70%)
  IC50: < 100 nM
Human NHE3 [2]
  % inhibition: C (>70%)
  IC50: < 100 nM
Fecal water content
  % Fecal water (% of control): 130% of control
  % Fecal water: 61%
